One assay has as its system RSV-A2-GFP virus. Description: microbe, parasite or virus in culture. It counts as cell-based, Human Respiratory Syncytial Virus. The settings on record: Calu-1 cells, RSV-A2-GFP MOI=1.2, 96 hrs, GFP-expressing cells counted. The procedure, abridged:
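Assay-ready frozen Calu-1 cells (20,000 cells/mL) were infected with RSV-A2-GFP at MOI 1.2 in DMEM with 2% FBS and exposed to a 10-point 3-fold compound dilution for 96 h at 37 °C. GFP-positive cells were counted by imaging, with same-well CellTiter-Glo for cytotoxicity. IC50 and CC50 came from 4-parameter logistic fits.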

In the next assay the test system is hMPV-GFP virus. The experiment in a line: microbe, parasite or virus in culture. It counts as cell-based, Human Metapneumovirus. The settings on record: VERO cells, hMPV-GFP MOI=1.25, 48 hrs, GFP-expressing cells counted. A digest of the protocol: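 VERO cells infected with GFP-expressing hMPV at MOI 1.25 and exposed to compound in 10-point 3-fold dilutions (typical final 40,300–2 nM) for 48 h at 37 °C. GFP-positive cells counted by imaging; same-well CellTiter-Glo for cytotoxicity. IC50 and CC50 from 4-parameter logistic fits.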

Where [1] appears, read: Table I Summary of Activities for RSV, read-out: RSV EC50.
Setting [2] is: Table II Summary of Activities for hMPV, read-out: RSV EC50.
[3] abbreviates: human respiratory syncytial virus, Calu-1, 96 h, read-out: RSV EC50, Table I Summary of Activities for RSV.
[4] abbreviates: Vero, 48 h, read-out: RSV EC50, Table II Summary of Activities for hMPV.

Where two headings read alike, the source gives them in different places.

Consider `Cc1nc(-c2cccs2)sc1C(=O)N1C[C@@H]2[C@H](C1)[C@H]2Oc1cc(C(C)(C)N)cc(-c2ccc(F)cc2)n1` [Example 12, ((1R,5S,6s)-6-((4-(2-aminopropan-2-yl)-6-(4-fluorophenyl)pyridin-2-yl)oxy)-3-azabicyclo[3.1.0]hexan-3-yl)(4-methyl-2-(thiophen-2-yl)thiazol-5-yl)methanone], for which the EC50 is less than 10 nM in the assay on RSV-A2-GFP virus (setting [1]) and more than 100 nM in the assay on hMPV-GFP virus (setting [2]).

Take `Cc1nc(-c2ccco2)sc1C(=O)N1C[C@@H]2[C@H](C1)[C@H]2Oc1cc(C(C)(C)N)cc(-c2ccc(F)cc2)n1` [Example 13, ((1R,5S,6s)-6-((4-(2-aminopropan-2-yl)-6-(4-fluorophenyl)pyridin-2-yl)oxy)-3-azabicyclo[3.1.0]hexan-3-yl)(2-(furan-2-yl)-4-methylthiazol-5-yl)methanone]: the EC50 in the assay with RSV-A2-GFP virus (setting [1]) is less than 10 nM; with hMPV-GFP virus (setting [2]), 10 to 100 nM.

Regarding `CC(C)(N)c1cc(O[C@H]2[C@@H]3CN(C(=O)c4sc(-c5cscn5)nc4C(F)F)C[C@@H]32)nc(-c2ccc(F)cc2)c1` [Example 14], the EC50 is less than 10 nM with RSV-A2-GFP virus (setting [3]) and more than 100 nM in the assay on hMPV-GFP virus (setting [4]).

As for `CC(C)(N)c1cc(O[C@H]2[C@@H]3CN(C(=O)c4sc(-c5ncco5)nc4C(F)F)C[C@@H]32)nc(-c2ccc(F)cc2)c1` [Example 15, ((1R,5S,6s)-6-((4-(2-aminopropan-2-yl)-6-(4-fluorophenyl)pyridin-2-yl)oxy)-3-azabicyclo[3.1.0]hexan-3-yl)(4-(difluoromethyl)-2-(oxazol-2-yl)thiazol-5-yl)methanone], the EC50 in the assay on RSV-A2-GFP virus (setting [1]) is less than 10 nM; with hMPV-GFP virus (setting [2]), more than 100 nM.

`Cn1nc(-c2ncco2)cc1C(=O)N1C[C@@H]2[C@H](C1)[C@H]2Oc1cc(C(C)(C)N)cc(-c2ccc(F)cc2)n1` [Example 17, ((1R,5S,6s)-6-((4-(2-aminopropan-2-yl)-6-(4-fluorophenyl)pyridin-2-yl)oxy)-3-azabicyclo[3.1.0]hexan-3-yl)(1-methyl-3-(oxazol-2-yl)-1H-pyrazol-5-yl)methanone]: the EC50 in the assay with RSV-A2-GFP virus (setting [3]) was less than 10 nM; with hMPV-GFP virus (setting [4]) it was 10 to 100 nM.

In the case of `Cn1nc(-c2cscn2)cc1C(=O)N1C[C@@H]2[C@H](C1)[C@H]2Oc1cc(C(C)(C)N)cc(-c2ccc(F)cc2)n1` [Example 18, ((1R,5S,6s)-6-((4-(2-aminopropan-2-yl)-6-(4-fluorophenyl)pyridin-2-yl)oxy)-3-azabicyclo[3.1.0]hexan-3-yl)(1-methyl-3-(thiazol-4-yl)-1H-pyrazol-5-yl)methanone], the EC50 is less than 10 nM with RSV-A2-GFP virus (setting [3]) and 10 to 100 nM in the assay with hMPV-GFP virus (setting [4]).

On to `CCn1nc(-c2cscn2)cc1C(=O)N1C[C@@H]2[C@H](C1)[C@H]2Oc1cc(C(C)(C)N)cc(-c2ccc(F)cc2)n1` [Example 19, ((1R,5S,6s)-6-((4-(2-aminopropan-2-yl)-6-(4-fluorophenyl)pyridin-2-yl)oxy)-3-azabicyclo[3.1.0]hexan-3-yl)(1-ethyl-3-(thiazol-4-yl)-1H-pyrazol-5-yl)methanone], for which the EC50 is less than 10 nM in the assay on RSV-A2-GFP virus (setting [3]) and 10 to 100 nM with hMPV-GFP virus (setting [4]).

For `Cn1nc(-c2ncsc2F)cc1C(=O)N1C[C@@H]2[C@H](C1)[C@H]2Oc1cc(C(C)(C)N)cc(-c2ccc(F)cc2)n1` [Example 20, ((1R,5S,6s)-6-((4-(2-aminopropan-2-yl)-6-(4-fluorophenyl)pyridin-2-yl)oxy)-3-azabicyclo[3.1.0]hexan-3-yl)(3-(5-fluorothiazol-4-yl)-1-methyl-1H-pyrazol-5-yl)methanone], the concentration for a half-maximal effect (EC50) is less than 10 nM in the assay with RSV-A2-GFP virus (setting [3]) and 10 to 100 nM in the assay on hMPV-GFP virus (setting [4]).

Consider `Cn1nc(-c2ccon2)cc1C(=O)N1C[C@@H]2[C@H](C1)[C@H]2Oc1cc(C(C)(C)N)cc(-c2ccc(F)cc2)n1` [Example 21, ((1R,5S,6s)-6-((4-(2-aminopropan-2-yl)-6-(4-fluorophenyl)pyridin-2-yl)oxy)-3-azabicyclo[3.1.0]hexan-3-yl)(3-(isoxazol-3-yl)-1-methyl-1H-pyrazol-5-yl)methanone], for which the figures for the EC50 in the assay on RSV-A2-GFP virus (setting [3]) and in the assay with hMPV-GFP virus (setting [4]) were less than 10 nM and more than 100 nM, respectively.

For the compound `Cc1cnc(-c2cc(C(=O)N3C[C@@H]4[C@H](C3)[C@H]4Oc3cc(C(C)(C)N)cc(-c4ccc(F)cc4)n3)n(C)n2)o1` [Example 22, ((1R,5S,6s)-6-((4-(2-aminopropan-2-yl)-6-(4-fluorophenyl)pyridin-2-yl)oxy)-3-azabicyclo[3.1.0]hexan-3-yl)(1-methyl-3-(5-methyloxazol-2-yl)-1H-pyrazol-5-yl)methanone], the EC50 with RSV-A2-GFP virus (setting [1]) is less than 10 nM; in the assay on hMPV-GFP virus (setting [2]), 10 to 100 nM.

As for `Cn1nc(-c2nccs2)cc1C(=O)N1C[C@@H]2[C@H](C1)[C@H]2Oc1cc(C(C)(C)N)cc(-c2ccc(F)cc2)n1` [Example 23, ((1R,5S,6s)-6-((4-(2-aminopropan-2-yl)-6-(4-fluorophenyl)pyridin-2-yl)oxy)-3-azabicyclo[3.1.0]hexan-3-yl)(1-methyl-3-(thiazol-2-yl)-1H-pyrazol-5-yl)methanone], the EC50 was less than 10 nM in the assay with RSV-A2-GFP virus (setting [1]) and more than 100 nM with hMPV-GFP virus (setting [2]).

With `Cc1nc(-c2cc(C(=O)N3C[C@@H]4[C@H](C3)[C@H]4Oc3cc(C(C)(C)N)cc(-c4ccc(F)cc4)n3)n(C)n2)cs1` [Example 24, ((1R,5S,6s)-6-((4-(2-aminopropan-2-yl)-6-(4-fluorophenyl)pyridin-2-yl)oxy)-3-azabicyclo[3.1.0]hexan-3-yl)(1-methyl-3-(2-methylthiazol-4-yl)-1H-pyrazol-5-yl)methanone], the EC50 is less than 10 nM in the assay with RSV-A2-GFP virus (setting [1]) and more than 100 nM with hMPV-GFP virus (setting [2]).

For the compound `Cn1nc(-c2cscn2)c(F)c1C(=O)N1C[C@@H]2[C@H](C1)[C@H]2Oc1cc(C(C)(C)N)cc(-c2ccc(F)cc2)n1` [Example 25, ((1R,5S,6s)-6-((4-(2-aminopropan-2-yl)-6-(4-fluorophenyl)pyridin-2-yl)oxy)-3-azabicyclo[3.1.0]hexan-3-yl)(4-fluoro-1-methyl-3-(thiazol-4-yl)-1H-pyrazol-5-yl)methanone], the EC50 is less than 10 nM with RSV-A2-GFP virus (setting [3]) and 10 to 100 nM with hMPV-GFP virus (setting [4]).

As to `Cn1nc(-c2ncco2)c(F)c1C(=O)N1C[C@@H]2[C@H](C1)[C@H]2Oc1cc(C(C)(C)N)cc(-c2ccc(F)cc2)n1` [Example 26, ((1R,5S,6s)-6-((4-(2-aminopropan-2-yl)-6-(4-fluorophenyl)pyridin-2-yl)oxy)-3-azabicyclo[3.1.0]hexan-3-yl)(4-fluoro-1-methyl-3-(oxazol-2-yl)-1H-pyrazol-5-yl)methanone], the EC50 in the assay with RSV-A2-GFP virus (setting [1]) was less than 10 nM; in the assay on hMPV-GFP virus (setting [2]), more than 100 nM.

Regarding `CC(C)(N)c1cc(O[C@H]2[C@@H]3CN(C(=O)c4nc(-c5cscn5)ns4)C[C@@H]32)nc(-c2ccc(F)cc2)c1` [Example 27, ((1R,5S,6s)-6-((4-(2-aminopropan-2-yl)-6-(4-fluorophenyl)pyridin-2-yl)oxy)-3-azabicyclo[3.1.0]hexan-3-yl)(3-(thiazol-4-yl)-1,2,4-thiadiazol-5-yl)methanone], the EC50 is 10 to 100 nM in the assay with RSV-A2-GFP virus (setting [1]) and more than 100 nM in the assay on hMPV-GFP virus (setting [2]).

As for `Cc1nn(-c2cscn2)cc1C(=O)N1C[C@@H]2[C@H](C1)[C@H]2Oc1cc(C(C)(C)N)cc(-c2ccc(F)cc2)n1` [Example 28, ((1R,5S,6s)-6-((4-(2-aminopropan-2-yl)-6-(4-fluorophenyl)pyridin-2-yl)oxy)-3-azabicyclo[3.1.0]hexan-3-yl)(3-methyl-1-(thiazol-4-yl)-1H-pyrazol-4-yl)methanone], the figures for the EC50 in the assay on RSV-A2-GFP virus (setting [1]) and in the assay on hMPV-GFP virus (setting [2]) were less than 10 nM and more than 100 nM, respectively.

Consider `CC(C)(N)c1cc(O[C@H]2[C@@H]3CN(C(=O)c4cc(-c5cscn5)ns4)C[C@@H]32)nc(-c2ccc(F)cc2)c1` [Example 29, ((1R,5S,6s)-6-((4-(2-aminopropan-2-yl)-6-(4-fluorophenyl)pyridin-2-yl)oxy)-3-azabicyclo[3.1.0]hexan-3-yl)(3-(thiazol-4-yl)isothiazol-5-yl)methanone], for which the EC50 is less than 10 nM in the assay on RSV-A2-GFP virus (setting [1]) and more than 100 nM in the assay with hMPV-GFP virus (setting [2]).

Turning to `Cn1nc(-c2cscn2)nc1C(=O)N1C[C@@H]2[C@H](C1)[C@H]2Oc1cc(C(C)(C)N)cc(-c2ccc(F)cc2)n1` [Example 30, ((1R,5S,6s)-6-((4-(2-aminopropan-2-yl)-6-(4-fluorophenyl)pyridin-2-yl)oxy)-3-azabicyclo[3.1.0]hexan-3-yl)(1-methyl-3-(thiazol-4-yl)-1H-1,2,4-triazol-5-yl)methanone], the EC50 with RSV-A2-GFP virus (setting [1]) is less than 10 nM; with hMPV-GFP virus (setting [2]), more than 100 nM.

For the compound `Cc1nc(-c2ncco2)sc1C(=O)N1C[C@@H]2[C@H](C1)[C@H]2Oc1cc(C(C)(C)N)cc(-c2ccc(F)cc2F)n1` [Example 31, ((1R,5S,6s)-6-((4-(2-aminopropan-2-yl)-6-(2,4-difluorophenyl)pyridin-2-yl)oxy)-3-azabicyclo[3.1.0]hexan-3-yl)(4-methyl-2-(oxazol-2-yl)thiazol-5-yl)], the EC50 in the assay with RSV-A2-GFP virus (setting [3]) was less than 10 nM; with hMPV-GFP virus (setting [4]), 10 to 100 nM.

In the case of `Cc1nc(-c2ccon2)sc1C(=O)N1C[C@@H]2[C@H](C1)[C@H]2Oc1cc(C(C)(C)N)cc(-c2ccc(F)cc2F)n1` [Example 32, ((1R,5S,6s)-6-((4-(2-aminopropan-2-yl)-6-(2,4-difluorophenyl)pyridin-2-yl)oxy)-3-azabicyclo[3.1.0]hexan-3-yl)(2-(isoxazol-3-yl)-4-methylthiazol-5-yl)methanone], the EC50 with RSV-A2-GFP virus (setting [1]) was less than 10 nM; in the assay on hMPV-GFP virus (setting [2]), more than 100 nM.

By EC50 is commonly meant the concentration giving half of the maximal effect.

Source of the values: patent publication US12565494B2, “Inhibitors of human respiratory syncytial virus and metapneumovirus” (priority 2022, dated 2026).
